# Source: patent US7157256B2, “Method for producing para-hydroxystyrene and other multifunctional aromatic compounds using two-phase extractive fermentation” (E. I. du Pont de Nemours and Company, priority 2003, dated 2007)
# Experiment: Partition of pHS between 2-undecanone and aqueous medium, 10 L fermentor
# Format: physicochemical
# Details: 2-undecanone/aqueous
# Method: The pre-seed culture was E. coli strain WWQ51.1, as described in Example 3, frozen in glycerol. This culture was used to inoculate 500 mL of the seed medium consisting of KH2PO4 (0.15 g/L), Na2HPO4 (0.35 g/L), (NH4)2SO4 (3 g/L), MgSO4.7H2O (0.3 g/L), yeast extract (0.5 g/L), and MOPS (15.7 g/L). The medium was adjusted to pH 6.8 and steam sterilized. Then, glucose (10 g/L), kanamycin (50 mg/L) and ampicillin (100 mg/L) were aseptically added to give the final concentration given in parentheses. The seed culture was inoculated and grown in a 2 L flask incubated at 35° C. and 300 rpm for 12 h in an incubator shaker.
# The fermentor medium consisted of: 6.2 L of H2O, 1.4 g KH2PO4, 3.5 g MgSO4.7H2O, 7 g (NH4)2SO4, 7 mL of Mazu DF204 Defoamer, obtained from BASF Corp. (Mt. Olive, N.J.), 7 mg thiamine, and 3 L of 2-undecanone, obtained from Bedoukian Research, Inc. (Danbury, Conn.). After sterilization of the medium, 250 g of a 50% w/v glucose solution and 140 mL of the trace element solution (as described in Example 1), were aseptically added. The pH of the medium was adjusted to 6.5. The final total volume of the fermentation medium was 10 L.
# The seed culture was used to inoculate the fermentor medium in a 14 L Braun Fermentor, Biostat C. B. (Braun Biotech International, Melesungen, Germany). The fermentation conditions were as follows: temperature: 35° C., stir rate: 400–600 rpm, airflow: 2–16 SLPM, DO2: 25%, and pressure: 1 bar. Glucose was fed into the fermentor starting at a rate of 0.28 g/min. This rate was reduced when the glucose concentration rose above 2 g/L. IPTG (8 mL of a 0.5 M solution) was added when the glucose concentration fell below 4 g/L.
# Samples of the aqueous and organic phases were collected at various times. The glucose, pHCA, CA, phenylalanine, tyrosine, and pHS concentrations, and the OD550 in the aqueous phase were determined, as described supra. The pHS concentration in the organic phase was measured using HPLC, as described supra.
smiles,measurement,setting,value
"C=Cc1ccc(O)cc1 [pHS, para-hydroxystyrene]",Partition coeff.,13.5 h,19
same,Partition coeff.,15.9 h,14
same,Partition coeff.,18.3 h,19
same,Partition coeff.,20.2 h,27
same,Partition coeff.,23.3 h,33
same,Partition coeff.,25.5 h,45
same,Partition coeff.,27.3 h,40
same,Partition coeff.,33.6 h,19
same,Partition coeff.,36.8 h,19
same,Partition coeff.,39.3 h,21
same,Partition coeff.,57.1 h,17
same,Partition coeff.,59.4 h,22
same,Partition coeff.,63.8 h,27
